Results published in patent publication US12453709B2, “Compositions and methods for treating autism” (priority 2013, dated 2025).

Test system: patients qualified under the DSM-5 definition of autism
Test: Example 4: Aberrant Behavior Checklist-Community (ABC-C)
Assay type: in vivo, human
Settings: for ABC irritability / ABC lethargy / ABC speech / ABC stereotypy / ABC hyperactivity / ABC TOTAL: PT RS; for ABC irritability: initial 3; for ABC lethargy: initial 6; for ABC speech: initial 8; for ABC TOTAL: initial 53
Protocol: α-methyl-DL tyrosine (AMPT) was administered to 3 patients. This group of patients was qualified under the DSM-5 definition of autism and treated. The Aberrant Behavior Checklist-Community (ABC-C), Autism Diagnostic Observation Schedule (ADOS), Conners Parent Rating Scale (CPRS), and General Clinical Impressions scale were used to assess the disease. Videos were taken at each visit.

## CC(N)(Cc1ccc(O)cc1)C(=O)O (racemic) [L1-79, α-methyl-DL-tyrosine]
PT LR, Day 7, initial 5
  ABC-C speech: 7
PT LR, Day 7, initial 13
  ABC-C stereotypy: 5
PT LR, Day 7, initial 21
  ABC-C irritability: 16
PT LR, Day 7, initial 31
  ABC-C lethargy: 12
PT LR, Day 7, initial 34
  ABC-C hyperactivity: 31
PT LR, Day 7, initial 114
  ABC-C TOTAL: 71
PT LR, Day 14, initial 5
  ABC-C speech: 7
PT LR, Day 14, initial 13
  ABC-C stereotypy: 0
PT LR, Day 14, initial 21
  ABC-C irritability: 16
PT LR, Day 14, initial 31
  ABC-C lethargy: 8
PT LR, Day 14, initial 34
  ABC-C hyperactivity: 24
PT LR, Day 14, initial 114
  ABC-C TOTAL: 55
PT LR, Day 21, initial 5
  ABC-C speech: 7
PT LR, Day 21, initial 13
  ABC-C stereotypy: 0
PT LR, Day 21, initial 21
  ABC-C irritability: 16
PT LR, Day 21, initial 31
  ABC-C lethargy: 7
PT LR, Day 21, initial 34
  ABC-C hyperactivity: 23
PT LR, Day 21, initial 114
  ABC-C TOTAL: 53
PT LR, Day 28, initial 5
  ABC-C speech: 7
PT LR, Day 28, initial 13
  ABC-C stereotypy: 0
PT LR, Day 28, initial 21
  ABC-C irritability: 16
PT LR, Day 28, initial 31
  ABC-C lethargy: 7
PT LR, Day 28, initial 34
  ABC-C hyperactivity: 23
PT LR, Day 28, initial 114
  ABC-C TOTAL: 53
Day 7
  ABC irritability: 3
  ABC lethargy: 3
  ABC speech: 3
  ABC TOTAL: 28
Day 7, initial 16
  ABC stereotypy: 11
Day 7, initial 20
  ABC hyperactivity: 8
Day 14
  ABC irritability: 1
  ABC lethargy: 1
  ABC speech: 3
  ABC TOTAL: 20
Day 14, initial 16
  ABC stereotypy: 9
Day 14, initial 20
  ABC hyperactivity: 6
Day 21
  ABC irritability: 1
  ABC lethargy: 1
  ABC speech: 3
  ABC TOTAL: 20
Day 21, initial 16
  ABC stereotypy: 9
Day 21, initial 20
  ABC hyperactivity: 6
Day 28
  ABC irritability: 1
  ABC lethargy: 1
  ABC speech: 3
  ABC TOTAL: 20
Day 28, initial 16
  ABC stereotypy: 9
Day 28, initial 20
  ABC hyperactivity: 6
PT WC, Day 7, initial 1
  ABC-C speech: 0
PT WC, Day 7, initial 12
  ABC-C stereotypy: 7
PT WC, Day 7, initial 16
  ABC-C irritability: 4
PT WC, Day 7, initial 20
  ABC-C hyperactivity: 10
PT WC, Day 7, initial 21
  ABC-C lethargy: 9
PT WC, Day 7, initial 70
  ABC-C TOTAL: 30
PT WC, Day 14, initial 1
  ABC-C speech: 0
PT WC, Day 14, initial 12
  ABC-C stereotypy: 6
PT WC, Day 14, initial 16
  ABC-C irritability: 2
PT WC, Day 14, initial 20
  ABC-C hyperactivity: 7
PT WC, Day 14, initial 21
  ABC-C lethargy: 3
PT WC, Day 14, initial 70
  ABC-C TOTAL: 18
PT WC, Day 21, initial 1
  ABC-C speech: 0
PT WC, Day 21, initial 12
  ABC-C stereotypy: 6
PT WC, Day 21, initial 16
  ABC-C irritability: 2
PT WC, Day 21, initial 20
  ABC-C hyperactivity: 7
PT WC, Day 21, initial 21
  ABC-C lethargy: 2
PT WC, Day 21, initial 70
  ABC-C TOTAL: 17
PT WC, Day 28, initial 1
  ABC-C speech: 0
PT WC, Day 28, initial 12
  ABC-C stereotypy: 6
PT WC, Day 28, initial 16
  ABC-C irritability: 2
PT WC, Day 28, initial 20
  ABC-C hyperactivity: 7
PT WC, Day 28, initial 21
  ABC-C lethargy: 2
PT WC, Day 28, initial 70
  ABC-C TOTAL: 17
